Test results taken from US20220315567A1 (priority 2016, published 2022).
Several values for one entry are separate records, joined by “and”; a condition that tells them apart may be missing. Identical values can stand only once. Counter-ions that a name gives are not always drawn. Like-named read-outs stand apart in the source and are kept apart here.

Assays:
human OPRM1 (μ, MOR) [1] = molecular target: T1, human OPRM1 (μ, MOR) (Homo sapiens, UniProt P35372); assay: cell-based; details: for EC50: PathHunter human OPRM1 Arrestin CHO-K1 cell line, read-out: cAMP EC50; for Emax: OPRM1, read-out: cAMP Emax
T1 construct: host or cells: CHO-K1
T1 sequence (P35372 whole entry): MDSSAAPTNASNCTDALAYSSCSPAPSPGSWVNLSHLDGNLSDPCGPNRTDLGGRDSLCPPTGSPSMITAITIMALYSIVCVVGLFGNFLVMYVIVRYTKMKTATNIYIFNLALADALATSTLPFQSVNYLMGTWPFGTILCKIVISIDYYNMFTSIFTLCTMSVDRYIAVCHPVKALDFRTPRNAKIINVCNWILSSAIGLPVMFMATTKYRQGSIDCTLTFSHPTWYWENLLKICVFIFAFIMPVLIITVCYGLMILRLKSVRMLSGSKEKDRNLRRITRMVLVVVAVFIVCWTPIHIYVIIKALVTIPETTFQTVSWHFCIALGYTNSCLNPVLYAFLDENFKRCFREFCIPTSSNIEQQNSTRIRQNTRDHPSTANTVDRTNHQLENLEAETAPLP
Procedure: G-protein signaling was measured via second messenger cAMP modulation. Detection of cAMP modulation was accomplished in the PathHunter human OPRM1 (μ, MOR) Arrestin CHO-K1 cell line using the Dynamic2 cAMP Kit from Cisbio.

human OPRM1 (μ, MOR) [2] = molecular target: T1, human OPRM1 (μ, MOR); assay type: cell-based; details: for ΔRA of compound: relative activity from EC50 and Emax of β-arrestin vs cAMP, lower RA = more G-protein biased
Procedure: In certain embodiments, the ability of a compound to activate G-protein or β-arrestin is not an on/off switch for a given pathway, but rather a continuous function. To capture this, each compound is measured for activity in cell assays that are linked to β-arrestin recruitment and G-protein signaling. By comparing the activity between these two measures (accounting for both EC50 and maximal response reached, Emax) a relative activity (RA) value is determined.
In the case of MOR it is desirable to have high activation of the G-protein pathway while reducing activation of β-arrestin. In the case of the formula above, this means a lower RA.

human OPRM1 (μ, MOR) [3] = molecular target: T1, human OPRM1 (μ, MOR); assay: cell-based; details: for EC50: PathHunter human OPRM1 Arrestin CHO-K1 cell line, read-out: β-Arrestin EC50; for Emax: OPRM1, read-out: β-Arrestin Emax
Procedure: The Discoverx PathHunter® β-Arrestin assay is used to measure β-arrestin-2 activity. The technology is based on Enzyme Fragment Complementation (EFC) with β-galactosidase (β-Gal) as the reporter. […] EA is fused to Q-arrestin-2, and ED is fused to the C-terminus of the GPCR of interest. When a ligand binds and the GPCR is activated, Q-arrestin-2 is recruited to the receptor resulting in an ED/EA complementation, restoring f-Gal activity, which is measured using chemiluminescence. For this assay, the PathHunter human OPRM1 (μ, MOR) Arrestin CHO-K1 cell line was used.

Compound	EC50 (human OPRM1 (μ, MOR) [1])	cAMP Emax (human OPRM1 (μ, MOR) [1]; hydrochloride)	Bias Factor (ΔRA of compound relative to ΔRA of DAMGO) × 10 (human OPRM1 (μ, MOR) [2]; hydrochloride)	ΔRA of compound (human OPRM1 (μ, MOR) [2]; hydrochloride)	EC50 (human OPRM1 (μ, MOR) [3])	β-Arrestin Emax (human OPRM1 (μ, MOR) [3]; hydrochloride)	cAMP Emax (human OPRM1 (μ, MOR) [1]) [%]	Bias Factor (ΔRA of compound relative to ΔRA of DAMGO) × 10 (human OPRM1 (μ, MOR) [2])	ΔRA of compound (human OPRM1 (μ, MOR) [2])	β-Arrestin Emax (human OPRM1 (μ, MOR) [3]) [%]	Emax (human OPRM1 (μ, MOR) [1]) [%]	Emax (human OPRM1 (μ, MOR) [3]) [%]
CN(C)C(CNC(=O)N1Cc2ccc(F)cc2C1)c1ccsc1 (single isomer, unassigned) [2a-ent-(+), (+)—N-(2-(Dimethylamino)-2-(thiophen-3-yl)ethyl)-5-fluoroisoindoline-2-carboxamide hydrochloride]	18 nM and 58 nM	99.5, 95.4%	−9.24	−2.40	1080 nM and 1010 nM	6.57, 13.7%						
CNC(CNC(=O)N1Cc2ccccc2C1)c1ccccc1 (single isomer, unassigned) [Compound 38-ent-B, (+)—N-(2-(Methylamino)-2-phenylethyl)isoindoline-2-carboxamide]	840 nM				> 100000 nM		97.6	<−14.83	<−2.96	5.9		
CN(C)C(CNC(=O)N1Cc2ccccc2C1)c1ccccc1 (single isomer, unassigned) [Compound 57]	72 nM				> 100000 nM			<−14.83	<−2.96	<1	89.4	
CN(C)C(CNC(=O)N1Cc2ccccc2C1)c1ccccc1 (single isomer, unassigned) [Compound 58]	132 nM				1890 nM		109.1	−1.66	−1.65	35.2		
CN(C)C(CNC(=O)N1Cc2ccc(F)cc2C1)c1ccsc1 (single isomer, unassigned; (-)) [2a-ent-(−), (−)-N-(2-(Dimethylamino)-2-(thiophen-3-yl)ethyl)-5-fluoroisoindoline-2-carboxamide hydrochloride]	12 nM and 15 nM	55.5, 30.4%	<−14.83	<−2.96	> 100000 nM	<1%						
CNC(CNC(=O)N1Cc2ccccc2C1)c1ccccc1 (single isomer, unassigned; (-)) [Compound 38-ent-A, (−)-N-(2-(Methylamino)-2-phenylethyl)isoindoline-2-carboxamide]	379 nM				> 100000 nM			<−14.83	<−2.96		81.6	3.7
CN(C)C(CNC(=O)N1Cc2ccccc2C1)c1ccsc1 (stereo not shown) [Compound 1a, N-(2-(Dimethylamino)-2-(thiophen-3-yl)ethyl)isoindoline-2-carboxamide hydrochloride]	20 nM				186 nM			−5.75	−2.06		69.2	5.67
CN(C)C(CNC(=O)N1Cc2cccc(F)c2C1)c1ccsc1 (stereo not shown) [Compound 3a, N-(2-(Dimethylamino)-2-(thiophen-3-yl)ethyl)-4-fluoroisoindoline-2-carboxamide hydrochloride]	14 nM				310 nM			−5.07	−1.99		94.2	21.9
CN(C)C(CNC(=O)N1Cc2ccc(Cl)cc2C1)c1ccsc1 (stereo not shown) [Compound 4a, 5-Chloro-N-(2-(dimethylamino)-2-(thiophen-3-yl)ethyl)isoindoline-2-carboxamide hydrochloride]	> 100000 nM				> 100000 nM						20.7	< 1
COc1ccc2c(c1)CN(C(=O)NCC(c1ccsc1)N(C)C)C2 (stereo not shown) [Compound 5a, N-(2-(Dimethylamino)-2-(thiophen-3-yl)ethyl)-5-methoxyisoindoline-2-carboxamide hydrochloride]	> 100000 nM				> 100000 nM						5	< 1
CN(C)C(CNC(=O)N1Cc2cc(F)c(F)cc2C1)c1ccsc1 (stereo not shown) [Compound 6a, N-(2-(dimethylamino)-2-(thiophen-3-yl)ethyl)-5,6-difluoroisoindoline-2-carboxamide hydrochloride]	9 nM				> 100000 nM			<−14.83	<−2.96		21.9	< 1
CN(C)C(CNC(=O)N1CCCc2cc(F)ccc21)c1ccsc1 (stereo not shown) [Compound 7a, N-(2-(dimethylamino)-2-(thiophen-3-yl)ethyl)-6-fluoro-3,4-dihydroquinoline-1(2H)-carboxamide hydrochloride]	407 nM				> 100000 nM			<−14.83	<−2.96		92.1	< 1
CN(C)C(CNC(=O)N1CCCc2ccc(F)cc21)c1ccsc1 (stereo not shown) [Compound 8a, N-(2-(dimethylamino)-2-(thiophen-3-yl)ethyl)-7-fluoro-3,4-dihydroquinoline-1(2H)-carboxamide]	730 nM				> 100000 nM			<−14.83	<−2.96		86.9	6.18
CN(C)C(CNC(=O)N1CCCc2ccccc21)c1ccsc1 (stereo not shown) [Compound 9a, N-(2-(dimethylamino)-2-(thiophen-3-yl)ethyl)-3,4-dihydroquinoline-1(2H)-carboxamide hydrochloride]	512 nM				4360 nM			−6.20	−2.10		75.7	5.11
CN(C)C(CNC(=O)NC1CCc2ccccc2C1)c1ccsc1 (stereo not shown) [Compound 10a, 1-(2-(Dimethylamino)-2-(thiophen-3-yl)ethyl)-3-(1,2,3,4-tetrahydronaphthalen-2-yl)urea hydrochloride]	4 nM				> 100000 nM			<−14.83	<−2.96		85.5	3.33
CN(C)C(CNC(=O)NC1CCCc2ccccc21)c1ccsc1 (stereo not shown) [Compound 11a, 1-(2-(Dimethylamino)-2-(thiophen-3-yl)ethyl)-3-(1,2,3,4-tetrahydronaphthalen-1-yl)urea hydrochloride]	< 1 nM				21 nM			2.32	−1.24		94.3	112
Cc1ccc2c(c1)CN(C(=O)NCC(c1ccsc1)N(C)C)C2 (stereo not shown) [Compound 12a, N-(2-(Dimethylamino)-2-(thiophen-3-yl)ethyl)-5-methylisoindoline-2-carboxamide hydrochloride]	> 100000 nM				> 100000 nM						6.33	2.16
CN(C)C(CNC(=O)N(C)C1CCCc2ccccc21)c1ccsc1 (stereo not shown) [Compound 13a, 3-(2-(Dimethylamino)-2-(thiophen-3-yl)ethyl)-1-methyl-1-(1,2,3,4-tetrahydronaphthalen-1-yl)urea hydrochloride]	68 nM				1680 nM			−8.39	−2.3		95.3	11.3
CN(C)C(CNC(=O)N1Cc2ccccc2C1)c1ccc(F)cc1Cl (stereo not shown) [Compound 14a, N-(2-(2-Chloro-4-fluorophenyl)-2-(dimethylamino)ethyl)isoindoline-2-carboxamide hydrochloride]	56 nM				3960 nM			−5.91	−2.07		102	61.2
COc1ccc(C(CNC(=O)N2Cc3ccccc3C2)N(C)C)cc1 (stereo not shown) [Compound 15a, N-(2-(Dimethylamino)-2-(4-methoxyphenyl)ethyl)isoindoline-2-carboxamide hydrochloride]	15 nM				1370 nM			−8.71	−2.35		108	44.2
CN(C)C(CNC(=O)N1CC[C@@H](c2ccccc2)C1)c1ccsc1 (stereo partly shown) [Compound 41]	> 100000 nM				> 100000 nM						9.6	< 1
CN(C)C(CNC(=O)N[C@@H]1CCc2ccccc2C1)c1ccsc1 (stereo partly shown) [Compound 47]								<−14.83	<−2.96			
CN(C)C(CNC(=O)N[C@@H]1CCc2ccccc2C1)c1ccsc1 (stereo partly shown) [Compound 48]								<−14.83	<−2.96			
C[C@@H](NC(=O)[C@@H](N)Cc1ccc(O)cc1)C(=O)NCC(=O)N(C)[C@@H](Cc1ccccc1)C(=O)NCCO [DAMGO, H-Tyr-D-Ala-Gly-NMe-Phe-Gly-OH, reference compound]											108	98.3
